For orientation: inhibition means the drop in the measured response relative to a control, in per cent.

The text below walks through data of PMC8635029 (Frontiers in Pharmacology, 2021).

For one series, the target named is T1, Adenosine A2A (Homo sapiens, UniProt P29274).
T1 construct: Eurofins Discovery (contract panel) PP223
As to the kind of experiment: In vitro SafetyScreen panel. The format is binding. Here is the method:
(§1) In vitro off-target pharmacological activities of HSK21542 were evaluated on 86 targets using a SafetyScreen panel (Item PP223, target selectivity panel) and the corresponding methods could be found at https://www.eurofinsdiscoveryservices.com/.

A further series concerns the target T2, Melanocortin MC1 (Homo sapiens, UniProt Q01726).
T2 construct: Eurofins Discovery (contract panel) Item PP223
As to the kind of experiment: In vitro SafetyScreen panel. In kind it is binding. Here is the method: as §1

In the next series the target is T3, Histamine H1 (Homo sapiens, UniProt P35367).
T3 construct: Eurofins Discovery (contract panel) Item PP223
Put plainly: In vitro SafetyScreen panel. The format is binding. Here is the method: as §1

The target of the next series is T4, Cannabinoid CB1 (Homo sapiens, UniProt P21554).
T4 construct: Eurofins Discovery (contract panel) PP223
Put plainly: In vitro SafetyScreen panel. In kind it is binding. Here is the method:
as §1

Series [1] concerns the target T5, Transporter, Serotonin (5-Hydroxytryptamine) (SERT) (Homo sapiens, UniProt P31645).
T5 construct: Eurofins Discovery (contract panel) PP223
Put plainly: In vitro SafetyScreen panel. In kind it is binding. Here is the method:
as §1

Another series addresses T6, Cannabinoid CB2 (Homo sapiens, UniProt P34972).
T6 construct: Eurofins Discovery (contract panel) PP223
Put plainly: In vitro SafetyScreen panel. The format is binding. Here is the method: as §1

The next series has as its target T7, Opiate δ1 (OP1, DOP) (Homo sapiens, UniProt P41143).
T7 construct: Eurofins Discovery (outsourced panel) PP223
Put plainly: In vitro SafetyScreen panel. In kind it is binding. Here is the method: as §1

The next series concerns the target T8, Estrogen ERα (Homo sapiens, UniProt P03372).
T8 construct: Eurofins Discovery (contract panel) Item PP223
As to the kind of experiment: In vitro SafetyScreen panel. In kind it is binding. Here is the method:
as §1

For a further series, the target named is T9, Dopamine D2S (Homo sapiens, UniProt P14416).
T9 construct: Eurofins Discovery (contract panel) Item PP223
Put plainly: In vitro SafetyScreen panel. The format is binding. Here is the method: as §1

Series [2] concerns the target T10, Serotonin (5-Hydroxytryptamine) 5-HT2A (Homo sapiens, UniProt P28223).
T10 construct: Eurofins Discovery (outsourced panel) PP223
Put plainly: In vitro SafetyScreen panel. In kind it is binding. Here is the method: as §1

Series [3] has as its target T11, Serotonin (5-Hydroxytryptamine) 5-HT2C (Homo sapiens, UniProt P28335).
T11 construct: Eurofins Discovery (contract panel) PP223
Put plainly: In vitro SafetyScreen panel. The format is binding. Here is the method:
as §1

The target of another series is T12, Muscarinic M2 (Homo sapiens, UniProt P08172).
T12 construct: Eurofins Discovery (outsourced panel) PP223
Put plainly: In vitro SafetyScreen panel. In kind it is binding. Here is the method:
as §1

The target in series [4] is T13, Peptidase, CTSG (Cathepsin G) (Homo sapiens, UniProt P08311).
T13 construct: Eurofins Discovery (outsourced panel) PP223
As to the kind of experiment: In vitro SafetyScreen panel. In kind it is biochemical. Here is the method: as §1

A further series concerns the target T14, Monoamine Oxidase MAO-A (Homo sapiens, UniProt P21397).
T14 construct: Eurofins Discovery (contract panel) Item PP223
Put plainly: In vitro SafetyScreen panel. The format is biochemical. Here is the method: as §1

For series [5], the target named is T15, Cholinesterase, Acetyl, ACES (Homo sapiens, UniProt P22303).
T15 construct: Eurofins Discovery (contract panel) PP223
As to the kind of experiment: In vitro SafetyScreen panel. In kind it is biochemical. Here is the method: as §1

A further series has as its target T16, Cyclooxygenase COX-1 (Homo sapiens, UniProt P23219).
T16 construct: Eurofins Discovery (contract panel) PP223
As to the kind of experiment: In vitro SafetyScreen panel. In kind it is biochemical. Here is the method:
as §1

The next series deals with T17, Cyclooxygenase COX-2 (Homo sapiens, UniProt P35354).
T17 construct: Eurofins Discovery (contract panel) Item PP223
As to the kind of experiment: In vitro SafetyScreen panel. The format is biochemical. Here is the method: as §1

In series [6] the target is T18, Protein Tyrosine Kinase, Insulin Receptor (Homo sapiens, UniProt P06213).
T18 construct: Eurofins Discovery (outsourced panel) PP223
Put plainly: In vitro SafetyScreen panel. In kind it is biochemical. Here is the method: as §1

In another series the target is T19, Monoamine Oxidase MAO-B (Homo sapiens, UniProt P27338).
T19 construct: Eurofins Discovery (outsourced panel) PP223
Put plainly: In vitro SafetyScreen panel. In kind it is biochemical. Here is the method:
as §1

In series [7] the target is T20, Protein Tyrosine Kinase, LCK (Homo sapiens, UniProt P06239).
T20 construct: Eurofins Discovery (outsourced panel) PP223
Put plainly: In vitro SafetyScreen panel. In kind it is biochemical. Here is the method: as §1

Series [8] addresses T21, Peptidase, Angiotensin Converting Enzyme (Oryctolagus cuniculus, UniProt P12822).
T21 construct: Eurofins Discovery (outsourced panel) PP223
Put plainly: In vitro SafetyScreen panel. The format is biochemical, rabbit. Here is the method:
as §1

Series [9] deals with T22, Nicotinic Acetylcholine α1, Bungarotoxin (Homo sapiens, UniProt P02708+P07510+Q07001).
T22 construct: Eurofins Discovery (outsourced panel) PP223
As to the kind of experiment: In vitro SafetyScreen panel. In kind it is binding.

In a further series the test system is ICR mice. Put plainly: Measurement of respiration (whole body plethysmography). In kind it is in vivo. Conditions: 2 mg/kg. Here is the method: A whole body plethysmography (DSI, US) was used to measure respiration in freely moving ICR mice (half male and half female) as described previously ([Manglik et al., 2016]; [Hill et al., 2018a]; [Hill et al., 2018b]) with some modifications. The respiratory frequency was recorded and then averaged for over 5-min period. The baseline values were recorded for 10 min before dosing. The mice were then removed from the chambers and given drugs, and respiration was then measured for 45 min.

Series [10] can be described thus: In vivo brain/plasma distribution in rats. Conditions: rat, iv, SD rats, single 0.3 mg/kg i.v., read-out: brain/plasma concentration ratio. Here is the method: SD rats (half male and half female) were intravenously given a single dose of 0.3 mg/kg HSK21542. The samples were collected at 0.083, 0.5, 1.5 and 4 h after dosing. The rats were anesthetized with isoflurane and then sacrificed by taking blood from the abdominal aorta. The whole brains were rapidly removed from the crania. The plasma (∼100 μL) was separated from the blood by centrifugating at 2000 ×g for 10 min at 4°C. The brains were rinsed with ice-cold normal saline, blotted dry, weighted and placed into a plastic tube. For 1.0 g of brain sample, 4 ml of acetonitrile-ultrapure water solution (1:4, v/v) was added to the tube. The brain samples were then homogenized for 120 s at 50 Hz and ultrasound was performed for 5 min. The plasma and the brain samples were analyzed using a LC-MS/MS assay as detailed in supplementary materials.
The plasma or brain homogenate was ice thawed. […] The resulting solution was then analyzed to determine the concentrations of HSK21542 on a LC-MS/MS system, which consisted of a DGU-20A5R degasser, a LC-30AD pump, a SIL-30AC autosampler, a CTO-20A column oven (Shimadzu, Japan) and an AB Sciex Triple Quad 5500 mass spectrometer (Sciex, Canada). […] Quantification was conducted in positive ion mode. The MRM transition of m/z 704.4→295.2 was used to quantify HSK21542.

T2 sequence (Q01726 whole entry): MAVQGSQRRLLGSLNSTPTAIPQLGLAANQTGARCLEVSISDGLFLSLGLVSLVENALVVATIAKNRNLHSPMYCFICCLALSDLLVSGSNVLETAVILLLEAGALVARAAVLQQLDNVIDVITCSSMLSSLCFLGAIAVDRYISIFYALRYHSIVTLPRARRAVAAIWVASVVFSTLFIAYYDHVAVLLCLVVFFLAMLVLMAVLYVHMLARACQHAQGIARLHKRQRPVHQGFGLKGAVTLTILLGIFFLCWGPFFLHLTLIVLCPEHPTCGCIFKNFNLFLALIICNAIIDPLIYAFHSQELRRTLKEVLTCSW
T20 sequence (P06239 whole entry): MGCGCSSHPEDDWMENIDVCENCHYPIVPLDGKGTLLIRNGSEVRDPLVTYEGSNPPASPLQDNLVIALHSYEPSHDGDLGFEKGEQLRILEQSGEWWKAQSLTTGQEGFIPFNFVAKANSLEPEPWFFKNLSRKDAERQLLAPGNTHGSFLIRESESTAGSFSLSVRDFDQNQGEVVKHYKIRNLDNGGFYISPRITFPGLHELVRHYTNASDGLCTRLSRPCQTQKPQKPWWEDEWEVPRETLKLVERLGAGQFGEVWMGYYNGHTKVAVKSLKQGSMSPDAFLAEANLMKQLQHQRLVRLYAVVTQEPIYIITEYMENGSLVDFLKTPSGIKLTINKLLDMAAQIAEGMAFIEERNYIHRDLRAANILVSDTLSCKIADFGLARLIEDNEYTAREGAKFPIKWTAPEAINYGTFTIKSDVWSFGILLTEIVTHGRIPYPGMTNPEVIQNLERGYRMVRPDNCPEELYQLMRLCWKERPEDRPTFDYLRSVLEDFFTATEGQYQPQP
T13 sequence (P08311 21-255): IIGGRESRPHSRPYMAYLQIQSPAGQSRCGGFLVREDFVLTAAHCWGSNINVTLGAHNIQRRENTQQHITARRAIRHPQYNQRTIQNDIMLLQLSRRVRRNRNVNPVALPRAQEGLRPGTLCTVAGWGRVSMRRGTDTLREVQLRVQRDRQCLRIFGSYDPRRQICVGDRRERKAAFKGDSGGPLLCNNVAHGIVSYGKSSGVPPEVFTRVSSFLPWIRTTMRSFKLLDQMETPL
T4 sequence (P21554 whole entry): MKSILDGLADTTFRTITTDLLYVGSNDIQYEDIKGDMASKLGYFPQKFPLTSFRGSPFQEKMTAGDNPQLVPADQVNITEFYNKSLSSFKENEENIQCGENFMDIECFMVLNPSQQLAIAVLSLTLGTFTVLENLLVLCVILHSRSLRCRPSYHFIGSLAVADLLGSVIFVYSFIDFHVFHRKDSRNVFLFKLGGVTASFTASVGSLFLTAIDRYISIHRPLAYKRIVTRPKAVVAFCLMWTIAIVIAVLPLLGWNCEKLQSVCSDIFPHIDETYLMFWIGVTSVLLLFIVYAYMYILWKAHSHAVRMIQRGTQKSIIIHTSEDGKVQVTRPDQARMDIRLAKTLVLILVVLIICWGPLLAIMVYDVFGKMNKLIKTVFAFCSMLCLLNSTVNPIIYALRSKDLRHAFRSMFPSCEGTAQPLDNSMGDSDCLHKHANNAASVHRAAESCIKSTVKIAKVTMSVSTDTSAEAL
T6 sequence (P34972 whole entry): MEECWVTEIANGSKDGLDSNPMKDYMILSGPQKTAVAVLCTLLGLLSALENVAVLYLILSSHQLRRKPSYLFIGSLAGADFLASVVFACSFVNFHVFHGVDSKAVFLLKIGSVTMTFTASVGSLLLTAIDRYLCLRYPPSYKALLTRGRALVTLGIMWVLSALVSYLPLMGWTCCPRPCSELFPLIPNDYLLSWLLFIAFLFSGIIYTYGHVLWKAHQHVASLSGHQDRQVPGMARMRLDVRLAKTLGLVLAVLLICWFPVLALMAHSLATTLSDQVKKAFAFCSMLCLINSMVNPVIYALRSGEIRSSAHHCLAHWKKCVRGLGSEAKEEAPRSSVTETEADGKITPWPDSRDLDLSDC
T19 sequence (P27338 whole entry): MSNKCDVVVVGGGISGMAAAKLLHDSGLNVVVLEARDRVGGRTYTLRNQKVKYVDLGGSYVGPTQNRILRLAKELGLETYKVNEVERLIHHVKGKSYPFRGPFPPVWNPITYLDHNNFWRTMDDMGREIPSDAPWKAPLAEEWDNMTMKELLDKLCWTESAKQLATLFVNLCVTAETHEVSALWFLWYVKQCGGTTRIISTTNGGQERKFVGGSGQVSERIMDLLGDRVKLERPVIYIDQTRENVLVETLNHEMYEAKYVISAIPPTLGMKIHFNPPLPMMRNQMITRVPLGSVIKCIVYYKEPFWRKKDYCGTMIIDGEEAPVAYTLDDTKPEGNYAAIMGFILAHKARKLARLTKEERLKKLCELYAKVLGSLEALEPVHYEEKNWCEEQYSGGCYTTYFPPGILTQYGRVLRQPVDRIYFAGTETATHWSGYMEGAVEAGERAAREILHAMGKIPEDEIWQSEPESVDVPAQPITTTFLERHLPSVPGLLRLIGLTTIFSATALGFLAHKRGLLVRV
T22 sequence (P07510 23-517): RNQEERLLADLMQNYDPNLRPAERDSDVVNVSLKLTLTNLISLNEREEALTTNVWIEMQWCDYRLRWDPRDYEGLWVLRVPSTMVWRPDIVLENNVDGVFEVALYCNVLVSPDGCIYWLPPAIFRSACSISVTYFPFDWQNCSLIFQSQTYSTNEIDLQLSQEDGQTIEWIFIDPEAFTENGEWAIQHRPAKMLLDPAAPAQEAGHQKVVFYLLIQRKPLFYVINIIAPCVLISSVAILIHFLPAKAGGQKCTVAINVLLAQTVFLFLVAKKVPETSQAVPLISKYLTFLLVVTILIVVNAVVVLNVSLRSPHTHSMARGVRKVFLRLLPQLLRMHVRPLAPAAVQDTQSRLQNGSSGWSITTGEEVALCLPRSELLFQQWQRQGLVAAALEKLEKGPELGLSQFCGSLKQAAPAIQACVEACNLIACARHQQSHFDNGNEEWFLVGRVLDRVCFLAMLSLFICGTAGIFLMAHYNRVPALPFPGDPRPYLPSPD
T22 sequence (Q07001 22-517): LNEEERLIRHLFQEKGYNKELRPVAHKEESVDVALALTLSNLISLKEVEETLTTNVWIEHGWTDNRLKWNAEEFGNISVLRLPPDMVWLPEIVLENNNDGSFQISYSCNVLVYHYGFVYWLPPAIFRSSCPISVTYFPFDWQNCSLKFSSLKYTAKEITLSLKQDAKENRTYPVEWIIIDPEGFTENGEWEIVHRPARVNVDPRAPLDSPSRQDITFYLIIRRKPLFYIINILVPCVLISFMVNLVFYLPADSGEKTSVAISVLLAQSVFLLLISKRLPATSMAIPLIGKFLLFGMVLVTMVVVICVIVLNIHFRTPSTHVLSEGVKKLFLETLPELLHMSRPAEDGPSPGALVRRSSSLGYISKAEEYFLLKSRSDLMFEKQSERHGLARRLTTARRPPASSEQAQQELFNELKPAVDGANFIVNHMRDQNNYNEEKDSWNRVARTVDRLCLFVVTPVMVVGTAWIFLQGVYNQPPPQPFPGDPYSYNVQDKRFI
T22 sequence (P11230 24-501, further chain): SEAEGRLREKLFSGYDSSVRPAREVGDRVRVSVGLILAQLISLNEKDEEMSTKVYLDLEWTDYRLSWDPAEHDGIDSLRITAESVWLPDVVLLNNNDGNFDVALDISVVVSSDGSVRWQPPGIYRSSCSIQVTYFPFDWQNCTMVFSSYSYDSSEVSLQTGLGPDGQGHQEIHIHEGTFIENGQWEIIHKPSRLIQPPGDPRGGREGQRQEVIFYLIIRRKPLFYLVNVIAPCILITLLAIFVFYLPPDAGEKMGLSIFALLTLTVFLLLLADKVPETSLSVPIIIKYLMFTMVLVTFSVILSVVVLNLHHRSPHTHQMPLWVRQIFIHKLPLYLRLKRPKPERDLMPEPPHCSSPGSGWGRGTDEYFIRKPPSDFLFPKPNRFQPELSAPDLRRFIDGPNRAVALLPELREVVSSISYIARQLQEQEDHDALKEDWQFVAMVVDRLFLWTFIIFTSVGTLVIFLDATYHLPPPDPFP
T22 sequence (P02708 21-457): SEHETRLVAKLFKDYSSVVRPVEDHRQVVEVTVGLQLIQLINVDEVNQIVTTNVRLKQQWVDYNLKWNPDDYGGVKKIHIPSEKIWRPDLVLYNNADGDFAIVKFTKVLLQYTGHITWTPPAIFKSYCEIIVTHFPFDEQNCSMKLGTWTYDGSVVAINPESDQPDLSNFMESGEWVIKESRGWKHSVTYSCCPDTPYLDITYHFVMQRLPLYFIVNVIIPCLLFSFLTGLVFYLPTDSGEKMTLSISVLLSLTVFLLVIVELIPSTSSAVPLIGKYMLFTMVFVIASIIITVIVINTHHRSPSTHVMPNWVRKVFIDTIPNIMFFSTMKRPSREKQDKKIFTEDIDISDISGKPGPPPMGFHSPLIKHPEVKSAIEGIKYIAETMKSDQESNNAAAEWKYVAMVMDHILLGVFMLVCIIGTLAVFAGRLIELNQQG
T10 sequence (P28223 whole entry): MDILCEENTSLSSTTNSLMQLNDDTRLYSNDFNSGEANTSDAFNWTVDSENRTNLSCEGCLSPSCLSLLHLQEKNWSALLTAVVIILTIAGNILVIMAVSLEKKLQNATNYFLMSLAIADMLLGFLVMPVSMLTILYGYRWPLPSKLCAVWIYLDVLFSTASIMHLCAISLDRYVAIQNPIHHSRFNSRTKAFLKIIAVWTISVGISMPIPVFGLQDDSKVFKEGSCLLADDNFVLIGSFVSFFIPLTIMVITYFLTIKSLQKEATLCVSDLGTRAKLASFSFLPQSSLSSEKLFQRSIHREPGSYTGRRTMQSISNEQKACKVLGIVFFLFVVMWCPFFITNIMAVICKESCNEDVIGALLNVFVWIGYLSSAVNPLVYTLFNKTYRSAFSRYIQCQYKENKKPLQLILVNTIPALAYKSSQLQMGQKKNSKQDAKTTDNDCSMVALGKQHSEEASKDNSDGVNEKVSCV

Consider `CC(=O)N1CC2(CCN(C(=O)[C@@H](CCCCN)NC(=O)[C@@H](CC(C)C)NC(=O)[C@@H](Cc3ccccc3)NC(=O)[C@H](N)Cc3ccccc3)CC2)C1` [HSK21542, 7-(D-phenylalanyl-D-phenylalanyl-D-leucyl-D-lysyl)-2-acetyl-2,7-diazaspiro (3.5)nonane], for which the inhibition at 10 µM against Adenosine A2A was 3%; against Melanocortin MC1 it was -3%; on Histamine H1, 4%; on Cannabinoid CB1 it was 47%; in series [1], 7%; on Cannabinoid CB2, -30%. Besides, the inhibition at 10 µM on Opiate δ1 (OP1, DOP) is 5%; against Estrogen ERα, 0%; on Dopamine D2S, -15%; in series [2], 0%; in series [3], 0%; against Muscarinic M2, 1%. In addition, the inhibition at 10 µM in series [4] was -1%; against Monoamine Oxidase MAO-A it was 0%; in [5] it was 6%; on Cyclooxygenase COX-1 it was 9%; at Cyclooxygenase COX-2 it was 12%; in [6], 17%. In addition, the inhibition at 10 µM is 11% at Monoamine Oxidase MAO-B, -8% in series [7], 5% in series [8] and -5% in series [9]. In the series with ICR mice, the “effect on respiratory rate” value is “no obvious effects”. In addition, the Kp in series [10] was found to be 0.001.
